Values of other authors in US20160076057A1, “INHIBITION OF METHANE AND HYDROGEN SULFIDE PRODUCTION IN ANAEROBIC DIGESTER ANIMAL FARMS, LANDFILLS, SEDIMENTS AND SEWER SYSTEMS” (Innovative Environmental Technologies, Inc., priority 2014, published 2016).
pIC50: −log10 of the molar value.

Experiments:
[1] = tested on: F420-dependent NADP oxidoreductase enzyme; settings: Sharma et al. (2011); for affinity for the model protein compared to natural ligand F420: 3D model structure, F420 binding cavity
Methanobrevibacter = settings: Miller and Wolin (2001)
non-methanogens = settings: Miller and Wolin (2001)
[2] = tested on: pure methanogenic bacteria; settings: Wolin and Miller (2005)
cellulolytic bacteria = settings: Wolin and Miller (2005)

CC[C@H](C)C(=O)O[C@H]1CCC=C2C=C[C@H](C)[C@H](CC[C@@H]3C[C@@H](O)CC(=O)O3)[C@H]21 [compactin, compactin (mevastatin)]
affinity for the model protein compared to natural ligand F420 [1]: more affinity
blocking the activity site for methane production [1]: very effective

CC[C@H](C)C(=O)O[C@H]1C[C@@H](C)C=C2C=C[C@H](C)[C@H](CC[C@@H]3C[C@@H](O)CC(=O)O3)[C@H]21 [lovastatin, Lovastatin]
affinity for the model protein compared to natural ligand F420 [1]: more affinity
blocking the activity site for methane production [1]: very effective
methane formation (Methanobrevibacter): significantly inhibited
concentration that completely inhibited growth (Methanobrevibacter; per ml of culture medium): 10 nmol/mL
pIC50 (Methanobrevibacter; per ml of culture medium, read-out: concentration giving 50% inhibition of growth): 5.40
populations of the non-methanogens (non-methanogens): not affected
growth and activity of pure methanogenic bacteria [2]: significantly reduced
effect on cellulolytic bacteria (cellulolytic bacteria): without any negative effect
